Laboratory results reported in ChEMBL document CHEMBL1165890, “Inside HDAC with HDAC inhibitors” (Eur J Med Chem, 2010).
Non-standard residues stand in square brackets, D forms with d. Residues, ends and D or L forms follow the SMILES beside them. *: point of attachment. Ala(indol-2-yl) = N[C@@H](Cc1cc2ccccc2[nH]1)C(=O)O; Asu = N[C@@H](CCCCCC(=O)O)C(=O)O; β3hI = CC[C@H](C)[C@H](N)CC(=O)O; NHOH = ON*

Key:
[1] = molecular target: Histone deacetylase; settings: hela
Description: Inhibition of HDAC in human HeLa cells

[2] = molecular target: Histone deacetylase 1 (Homo sapiens, UniProt Q13547); experiment: Inhibition of recombinant HDAC1
Histone deacetylase 1, sequence (Q13547 whole entry): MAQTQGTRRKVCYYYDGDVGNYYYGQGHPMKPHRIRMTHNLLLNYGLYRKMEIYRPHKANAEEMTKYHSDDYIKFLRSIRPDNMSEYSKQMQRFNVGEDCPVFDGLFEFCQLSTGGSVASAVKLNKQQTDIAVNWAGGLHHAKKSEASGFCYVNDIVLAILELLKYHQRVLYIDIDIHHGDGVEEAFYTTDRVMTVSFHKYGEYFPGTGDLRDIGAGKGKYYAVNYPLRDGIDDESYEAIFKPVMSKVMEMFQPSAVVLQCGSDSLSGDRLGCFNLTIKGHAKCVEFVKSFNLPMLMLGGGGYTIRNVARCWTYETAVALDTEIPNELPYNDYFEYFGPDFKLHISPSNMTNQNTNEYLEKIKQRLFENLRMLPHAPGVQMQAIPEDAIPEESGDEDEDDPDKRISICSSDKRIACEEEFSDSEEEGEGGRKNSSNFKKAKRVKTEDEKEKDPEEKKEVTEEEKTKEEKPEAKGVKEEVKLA

[3] = molecular target: Histone deacetylase 2 (Homo sapiens, UniProt Q92769); experiment: Inhibition of recombinant HDAC2
Histone deacetylase 2, sequence (Q92769 whole entry): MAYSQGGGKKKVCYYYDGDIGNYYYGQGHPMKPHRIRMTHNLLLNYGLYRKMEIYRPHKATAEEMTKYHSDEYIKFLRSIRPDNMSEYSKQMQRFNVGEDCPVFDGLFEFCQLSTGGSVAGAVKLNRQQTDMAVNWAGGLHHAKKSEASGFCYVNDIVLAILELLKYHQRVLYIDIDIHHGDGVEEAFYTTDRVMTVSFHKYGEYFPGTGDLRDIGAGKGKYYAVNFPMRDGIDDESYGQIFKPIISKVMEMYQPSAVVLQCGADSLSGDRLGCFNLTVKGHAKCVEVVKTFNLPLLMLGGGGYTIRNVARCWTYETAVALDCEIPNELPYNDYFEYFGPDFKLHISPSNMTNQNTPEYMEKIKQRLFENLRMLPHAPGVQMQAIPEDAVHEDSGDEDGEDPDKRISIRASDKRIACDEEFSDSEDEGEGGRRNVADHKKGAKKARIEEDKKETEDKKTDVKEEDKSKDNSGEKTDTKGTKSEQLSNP

[4] = molecular target: Histone deacetylase 3 (Homo sapiens, UniProt O15379); experiment: Inhibition of recombinant HDAC3
Histone deacetylase 3, sequence (O15379 whole entry): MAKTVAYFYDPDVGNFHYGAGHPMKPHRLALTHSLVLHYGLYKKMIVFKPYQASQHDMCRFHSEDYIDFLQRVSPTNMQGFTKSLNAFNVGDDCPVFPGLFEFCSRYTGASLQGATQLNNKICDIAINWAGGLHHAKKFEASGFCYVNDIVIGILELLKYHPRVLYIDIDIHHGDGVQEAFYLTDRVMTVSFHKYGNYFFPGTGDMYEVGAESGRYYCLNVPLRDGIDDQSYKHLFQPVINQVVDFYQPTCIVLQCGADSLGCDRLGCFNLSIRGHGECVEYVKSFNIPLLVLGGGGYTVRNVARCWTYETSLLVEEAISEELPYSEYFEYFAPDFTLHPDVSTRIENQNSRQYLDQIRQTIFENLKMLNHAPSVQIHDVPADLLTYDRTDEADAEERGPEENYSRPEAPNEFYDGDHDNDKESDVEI

[5] = molecular target: T1, Protein deacetylase HDAC6 (Homo sapiens, UniProt Q9UBN7); experiment: Inhibition of recombinant HDAC6
T1 sequence (Q9UBN7 whole entry): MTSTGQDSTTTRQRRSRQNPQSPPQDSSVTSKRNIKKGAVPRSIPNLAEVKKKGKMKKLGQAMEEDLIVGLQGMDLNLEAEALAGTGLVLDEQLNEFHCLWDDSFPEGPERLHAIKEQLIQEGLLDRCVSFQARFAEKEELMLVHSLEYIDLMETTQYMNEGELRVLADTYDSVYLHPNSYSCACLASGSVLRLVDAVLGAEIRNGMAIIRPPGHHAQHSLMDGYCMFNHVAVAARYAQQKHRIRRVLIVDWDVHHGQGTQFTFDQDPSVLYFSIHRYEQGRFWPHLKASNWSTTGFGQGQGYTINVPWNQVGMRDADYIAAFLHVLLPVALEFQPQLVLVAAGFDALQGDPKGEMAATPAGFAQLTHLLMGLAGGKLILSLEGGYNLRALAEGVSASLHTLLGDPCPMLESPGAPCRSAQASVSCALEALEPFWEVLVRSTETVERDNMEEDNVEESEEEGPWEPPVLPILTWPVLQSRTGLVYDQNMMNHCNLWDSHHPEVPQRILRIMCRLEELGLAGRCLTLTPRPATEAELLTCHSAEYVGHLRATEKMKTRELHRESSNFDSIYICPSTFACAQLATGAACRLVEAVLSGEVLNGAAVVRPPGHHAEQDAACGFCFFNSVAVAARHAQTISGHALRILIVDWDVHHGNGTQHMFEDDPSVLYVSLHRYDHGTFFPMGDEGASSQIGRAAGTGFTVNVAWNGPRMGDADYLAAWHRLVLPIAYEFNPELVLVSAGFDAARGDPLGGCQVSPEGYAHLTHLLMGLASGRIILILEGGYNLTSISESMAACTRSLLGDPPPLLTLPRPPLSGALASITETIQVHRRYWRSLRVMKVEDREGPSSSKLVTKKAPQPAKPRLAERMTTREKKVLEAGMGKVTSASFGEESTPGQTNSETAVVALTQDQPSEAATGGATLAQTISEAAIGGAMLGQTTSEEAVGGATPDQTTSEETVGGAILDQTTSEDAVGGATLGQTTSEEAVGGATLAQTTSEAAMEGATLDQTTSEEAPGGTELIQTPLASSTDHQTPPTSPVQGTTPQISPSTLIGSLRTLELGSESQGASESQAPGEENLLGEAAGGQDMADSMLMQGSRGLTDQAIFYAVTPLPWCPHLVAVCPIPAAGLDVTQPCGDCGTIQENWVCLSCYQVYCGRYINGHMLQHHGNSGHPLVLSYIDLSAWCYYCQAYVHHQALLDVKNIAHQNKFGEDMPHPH

[6] = molecular target: T2, Histone deacetylase 8 (Homo sapiens, UniProt Q9BY41); experiment: Inhibition of recombinant HDAC8
T2 sequence (Q9BY41 whole entry): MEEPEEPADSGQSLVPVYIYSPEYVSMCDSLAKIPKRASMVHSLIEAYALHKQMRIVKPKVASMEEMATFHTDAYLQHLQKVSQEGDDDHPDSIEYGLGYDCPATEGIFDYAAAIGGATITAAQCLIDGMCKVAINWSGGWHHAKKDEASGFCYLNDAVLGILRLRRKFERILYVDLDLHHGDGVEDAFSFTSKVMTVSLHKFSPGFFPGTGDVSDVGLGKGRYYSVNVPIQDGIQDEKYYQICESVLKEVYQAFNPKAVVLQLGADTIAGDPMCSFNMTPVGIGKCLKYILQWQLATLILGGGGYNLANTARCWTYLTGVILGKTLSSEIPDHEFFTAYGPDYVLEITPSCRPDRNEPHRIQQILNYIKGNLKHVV

[7] = molecular target: T3, Polyamine deacetylase HDAC10 (Homo sapiens, UniProt Q969S8); experiment: Inhibition of HDAC10
T3 sequence (Q969S8 whole entry): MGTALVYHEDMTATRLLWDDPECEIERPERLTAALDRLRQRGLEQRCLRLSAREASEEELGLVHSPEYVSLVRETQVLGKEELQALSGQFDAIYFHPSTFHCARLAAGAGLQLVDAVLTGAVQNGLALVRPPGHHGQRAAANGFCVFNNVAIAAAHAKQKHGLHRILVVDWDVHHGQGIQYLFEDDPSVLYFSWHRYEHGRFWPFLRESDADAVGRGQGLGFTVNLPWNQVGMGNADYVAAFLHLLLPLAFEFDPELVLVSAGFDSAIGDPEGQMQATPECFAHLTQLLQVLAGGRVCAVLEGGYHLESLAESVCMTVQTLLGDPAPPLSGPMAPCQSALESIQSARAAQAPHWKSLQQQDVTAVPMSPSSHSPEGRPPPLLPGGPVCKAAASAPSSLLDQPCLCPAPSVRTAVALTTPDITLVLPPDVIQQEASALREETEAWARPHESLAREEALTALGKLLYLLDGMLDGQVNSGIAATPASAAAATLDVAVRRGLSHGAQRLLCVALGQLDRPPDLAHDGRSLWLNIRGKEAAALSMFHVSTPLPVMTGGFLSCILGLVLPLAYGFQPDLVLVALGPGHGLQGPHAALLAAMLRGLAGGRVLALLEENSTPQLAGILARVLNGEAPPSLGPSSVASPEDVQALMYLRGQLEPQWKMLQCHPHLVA

[8] = test system: HCT-116; experiment: Antitumor activity against human HCT116 cells xenografted in mouse at 30 mg/kg; type: functional

Q: `CCC(=O)CCCCC[C@@H]1NC(=O)CNC(=O)C[C@H]([C@@H](C)CC)N(C)C(=O)[C@H](Cc2cc3ccccc3[nH]2)NC1=O` was tested. Which IC50 [1] did it give?
A: Its IC50 is 2 µM.

Q: `CCC(=O)CCCCC[C@@H]1NC(=O)CNC(=O)C[C@H]([C@@H](C)CC)NC(=O)[C@H](Cc2cc3ccccc3[nH]2)NC1=O` was tested. Which IC50 [1] did it give?
A: The IC50 was 0.019 µM.

Q: How did the IC50 [2] turn out when `N=C/C=N/c1ccc(C(=O)Nc2cc(-c3cccs3)ccc2N)cc1` was run?
A: The IC50 was 0.06 µM.

Q: And the IC50 [3]?
A: The IC50 was 0.02 µM.

Q: What about the IC50 [4] of the same compound?
A: The IC50 was greater than 20 µM.

Q: And the IC50 [5]?
A: Its IC50 is greater than 20 µM.

Q: And the IC50 [6]?
A: The IC50 was greater than 20 µM.

Q: With `CCC(=O)CCCCC[C@@H]1NC(=O)[C@H](C)NC(=O)C[C@H]([C@@H](C)CC)NC(=O)[C@H](Cc2cc3ccccc3[nH]2)NC1=O` as the compound, how does the IC50 [1] read?
A: Its IC50 is 0.04 µM.

Q: Which IC50 [1] does the source give for `CCC(=O)CCCCC[C@@H]1NC(=O)CNC(=O)C[C@H]([C@@H](C)CC)NC(=O)[C@H](Cc2cc3ccccc3[nH]2)N(C)C1=O` here?
A: Its IC50 is greater than 10 µM.

Q: For `O=C(CS)NCCCCCC(=O)Nc1cccc2cccnc12`, which IC50 [1] is on record?
A: Its IC50 is 0.9 µM.

Q: For `O=C(CS)NCCCCCC(=O)Nc1ccc2ncccc2c1`, which IC50 [1] is on record?
A: Its IC50 is 0.9 µM.

Q: `COc1ccc(C(=O)Nc2cc(-c3cccs3)ccc2N)cc1` was tested. Which IC50 [4] did it give?
A: The IC50 was greater than 20 µM.

Q: What about the IC50 [5] of the same compound?
A: Its IC50 is greater than 20 µM.

Q: And the IC50 [6]?
A: The IC50 was greater than 20 µM.

Q: For `CC(=O)Nc1ccc(C(=O)Nc2cc(-c3cccs3)ccc2N)cc1`, which IC50 [6] is on record?
A: Its IC50 is greater than 20 µM.

Q: With `Cn1c(/C=C/C(=O)NO)ccc1C(=O)c1ccccc1` as the compound, how does the IC50 [7] read?
A: Its IC50 is 0.28 µM.

Q: With `Cn1cc(/C=C/C(=O)NO)cc1C(=O)c1ccccc1` as the compound, how does the IC50 [7] read?
A: Its IC50 is 0.05 µM.

Q: For `CC[C@H](C)[C@H]1CC(=O)NCC(=O)N[C@@H](CCCCCC(N)=O)C(=O)N[C@@H](Cc2cc3ccccc3[nH]2)C(=O)N1` (cyclo([Asu](NH2)[Ala(indol-2-yl)][β3hI]G)), which IC50 [1] is on record?
A: Its IC50 is 2.7 µM.

Q: `CC[C@H](C)[C@H]1CC(=O)NCC(=O)N[C@@H](CCCCCC(=O)NO)C(=O)N[C@@H](Cc2cc3ccccc3[nH]2)C(=O)N1` (cyclo([Asu](NHOH)[Ala(indol-2-yl)][β3hI]G)) was tested. Which IC50 [1] did it give?
A: The IC50 was less than 0.001 µM.

Q: How did the IC50 [1] turn out when `CC[C@H](C)[C@H]1CC(=O)NCC(=O)N[C@@H](CCCCCC(=O)O)C(=O)N[C@@H](Cc2cc3ccccc3[nH]2)C(=O)N1` (cyclo([Asu][Ala(indol-2-yl)][β3hI]G)) was run?
A: The IC50 was 0.3 µM.

Q: For `CC(=O)Nc1ccc(C(=O)Nc2ccccc2N)cc1` [TACEDINALINE], which inhibition in vivo at 30 mg/kg [8] is on record?
A: Its inhibition in vivo at 30 mg/kg is 52%.
